Patent US20250230193A1, “CYCLIC COMPOUND HAVING SELECTIVE KRAS INHIBITORY EFFECT ON HRAS AND NRAS” (CHUGAI SEIYAKU KABUSHIKI KAISHA, priority 2022, published 2025)

Assays:
[1] = molecular target: GDP-bound NRAS wild-type protein (Homo sapiens, UniProt P01111); assay: Binding to NRAS by surface plasmon resonance (SPR), Single Cycle Kinetics; conditions: KD ratio NRAS/KRAS, class symbols
[2] = molecular target: GDP-bound HRAS wild-type protein (Homo sapiens, UniProt P01112); assay: Binding to HRAS by surface plasmon resonance (SPR), Single Cycle Kinetics; conditions: KD ratio HRAS/KRAS, class symbols
Sequence of GDP-bound HRAS wild-type protein (P01112 whole entry): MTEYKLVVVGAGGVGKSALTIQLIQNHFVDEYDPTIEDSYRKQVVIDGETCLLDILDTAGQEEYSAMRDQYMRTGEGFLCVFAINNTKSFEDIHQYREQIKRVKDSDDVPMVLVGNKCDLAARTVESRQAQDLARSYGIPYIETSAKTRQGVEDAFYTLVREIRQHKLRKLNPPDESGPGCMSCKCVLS

Sequence of GDP-bound NRAS wild-type protein (P01111 whole entry): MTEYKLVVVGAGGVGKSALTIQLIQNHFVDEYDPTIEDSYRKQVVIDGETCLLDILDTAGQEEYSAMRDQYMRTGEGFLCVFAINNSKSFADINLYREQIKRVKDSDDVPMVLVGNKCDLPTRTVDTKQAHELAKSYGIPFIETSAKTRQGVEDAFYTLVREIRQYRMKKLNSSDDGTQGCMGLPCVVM

Row | SMILES | NRAS/KRAS (ratio of KD value with respect to GDP-bound NRAS wild-type protein to KD value with respect to KRAS) [1] | HRAS/KRAS (ratio of KD value with respect to GDP-bound HRAS wild-type protein to KD value with respect to KRAS) [2]
1 | CCC[C@H]1C(=O)N[C@@H]([C@@H](C)CC)C(=O)N(C)CC(=O)N(C)[C@H]2C/C=C\CCN(C2=O)[C@@H](Cc2ccc(C)cc2)C(=O)N(C)CC(=O)N[C@@H](CCc2ccc(Cl)c(C(F)(F)F)c2)C(=O)N2C[C@H](OCC)C[C@H]2C(=O)NC2(CC(C)(C)C2)C(=O)N(C)[C@@H](C2CCCC2)C(=O)N(C)[C@H](C(=O)N(C)C)CC(=O)N1C [PP2786] | A (a compound having 10 or more and less than 20 is denoted as A) | A (a compound having 10 or more and less than 20 is denoted as A)
2 | CCC[C@H]1C(=O)N[C@@H]([C@@H](C)CC)C(=O)N(C)CC(=O)N(C)[C@H]2C/C=C\CCN(C2=O)[C@@H](Cc2ccc(C)cc2)C(=O)N(C)CC(=O)N[C@@H](CCc2ccc(Cl)c(C(F)(F)F)c2)C(=O)N2C[C@H](OCC)C[C@H]2C(=O)NC2(CC(C)(C)C2)C(=O)N(C)[C@@H](C(CC)CC)C(=O)N(C)[C@H](C(=O)N(C)C)CC(=O)N1C [PP2787] | AA (a compound having 20 or more is denoted as AA) | A (a compound having 10 or more and less than 20 is denoted as A)
3 | CCC[C@H]1C(=O)N[C@@H]([C@@H](C)CC)C(=O)N(C)CC(=O)N(C)[C@H]2C/C=C\CCN(C2=O)[C@@H](Cc2ccc(C(F)(F)F)cc2)C(=O)N(C)CC(=O)N[C@@H](CCc2ccc(Cl)c(OC)c2)C(=O)N2C[C@H](OCC)C[C@H]2C(=O)NC2(CC(C)(C)C2)C(=O)N(C)[C@@H](C2CCCC2)C(=O)N(C)[C@H](C(=O)N(C)C)CC(=O)N1C [PP2788] | A (a compound having 10 or more and less than 20 is denoted as A) | A (a compound having 10 or more and less than 20 is denoted as A)
4 | CCC[C@H]1C(=O)N[C@@H]([C@@H](C)CC)C(=O)N(C)CC(=O)N(C)[C@H]2C/C=C\CCN(C2=O)[C@@H](Cc2ccc(C(F)(F)F)cc2)C(=O)N(C)CC(=O)N[C@@H](CCc2ccc(Cl)c(OC)c2)C(=O)N2C[C@H](OCC)C[C@H]2C(=O)NC2(CC(C)(C)C2)C(=O)N(C)[C@@H](C(CC)CC)C(=O)N(C)[C@H](C(=O)N(C)C)CC(=O)N1C [PP2789] | AA (a compound having 20 or more is denoted as AA) | A (a compound having 10 or more and less than 20 is denoted as A)
5 | CCC[C@H]1C(=O)N[C@@H]([C@@H](C)CC)C(=O)N(C)CC(=O)N(C)[C@H]2C/C=C\CCN(C2=O)[C@@H](Cc2ccc(C)cc2)C(=O)N(C)CC(=O)N[C@@H](CCc2ccc(Cl)c(OC)c2)C(=O)N2C[C@H](OCC)C[C@H]2C(=O)NC2(CC(C)(C)C2)C(=O)N(C)[C@@H](C2CCCC2)C(=O)N(C)[C@H](C(=O)N(C)C)CC(=O)N1C [PP2790] | A (a compound having 10 or more and less than 20 is denoted as A) | A (a compound having 10 or more and less than 20 is denoted as A)
6 | CCCC[C@H]1C(=O)N[C@@H]([C@@H](C)CC)C(=O)N(C)CC(=O)N(C)[C@H]2C/C=C\CCN(C2=O)[C@@H](Cc2ccc(C)cc2)C(=O)N(C)CC(=O)N[C@@H](CCc2cc(F)c(C(F)(F)F)c(F)c2)C(=O)N2C[C@H](OCC)C[C@H]2C(=O)NC2(CCC2)C(=O)N(C)[C@@H](C2CCCC2)C(=O)N(C)[C@H](C(=O)N(C)CC)CC(=O)N1C [PP2796] | A (a compound having 10 or more and less than 20 is denoted as A) | A (a compound having 10 or more and less than 20 is denoted as A)
7 | CCC[C@H]1C(=O)N[C@@H]([C@@H](C)CC)C(=O)N(C)CC(=O)N(C)[C@H]2C/C=C\CCN(C2=O)[C@@H](Cc2ccc(C)cc2)C(=O)N(C)CC(=O)N[C@@H](CCc2cc(F)c(C(F)(F)F)c(F)c2)C(=O)N2C[C@H](OCC)C[C@H]2C(=O)NC2(CC(C)(C)C2)C(=O)N(C)[C@@H](CC2CC2)C(=O)N(C)[C@H](C(=O)N(C)C)CC(=O)N1C [PP2797] | A (a compound having 10 or more and less than 20 is denoted as A) | A (a compound having 10 or more and less than 20 is denoted as A)
8 | CCCC[C@H]1C(=O)N[C@@H]([C@@H](C)CC)C(=O)N(C)CC(=O)N(C)[C@H]2C/C=C\CCN(C2=O)[C@@H](Cc2ccc(C)cc2)C(=O)N(C)CC(=O)N[C@@H](CCc2cc(F)c(C(F)(F)F)c(F)c2)C(=O)N2C[C@H](OCC)C[C@H]2C(=O)NC2(CCC2)C(=O)N(C)[C@@H](C2CCCC2)C(=O)N(C)[C@H](C(=O)N(C)C)CC(=O)N1C [PP2798] | A (a compound having 10 or more and less than 20 is denoted as A) | A (a compound having 10 or more and less than 20 is denoted as A)
